16 molecules from patent publication US20240398805A1, “QUINAZOLINE DERIVED COMPOUNDS AS EGFR INHIBITORS AND THEIR USES THEREOF” (ACCUTAR BIOTECHNOLOGY INC., priority 2021, published 2024) can be followed below.

Common to all, as to type: cell-based
The test system of one assay is HCC827 cells. Put plainly: Cell growth inhibition (CellTiter-Glo, 3 days) in HCC827. The note with it: Homo sapiens, 72 h, 3 days after administration. In short, it runs like this: (§1)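 HCC827 cells in RPMI/10% FBS and A431 cells in DMEM/10% FBS were seeded at 5000 cells/well and left overnight. Compound was then added over a concentration range for 3 days of incubation, and viability was read by CellTiter-Glo luminescence.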
(In general: In ATP-based viability assays light output follows the ATP content of the culture.)

Assay [1] concerns HCC827-SVD cells (human EGFR exon 20 insertion mutant D770_N771 insSVD). Put plainly: Cell growth inhibition (CellTiter-Glo, 3 days) in HCC827-SVD. The settings on record: 72 h, 3 days after administration. The method in brief:
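HCC827 cells carrying lentiviral codon-optimized EGFR D770_N771 insSVD, with endogenous EGFR knocked out by CRISPR (single clone), seeded at 5000 cells/well in RPMI with 10% FBS. Viability read by CellTiter-Glo luminescence.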

In assay [2] the test system is HCC827-ASV cells (human EGFR exon 20 insertion mutant A769_D770insASV). The assay can be described thus: Cell growth inhibition (CellTiter-Glo, 3 days) in HCC827-ASV. The settings on record: 72 h, 3 days after administration. In short, it runs like this: (§2)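 Growth inhibition used a CellTiter-Glo luminescence read-out after 3 days of compound exposure at various concentrations. Cells were plated the day before at 5000/well in RPMI plus 10% FBS. The lines are HCC827 transduced by lentivirus with codon-optimized EGFR ASV or ERBB2 YVMA exon 20 insertions.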

Assay [3] deals with HCC827-YVMA cells (human ERBB2 exon20 insertion mutant A775_G776ins YVMA). The assay can be described thus: Cell growth inhibition (CellTiter-Glo, 3 days) in HCC827-YVMA. The settings on record: 72 h, 3 days after administration. In short, it runs like this: as §2
The next assay deals with A431 cells. The assay can be described thus: Cell growth inhibition (CellTiter-Glo, 3 days) in A431. The settings on record: Homo sapiens, A-431, 72 h, 3 days after administration. In short, it runs like this: as §1

One may read the GI50 as the concentration at which growth is held to half of that of the control. Higher therefore signals less potent growth inhibition. For the molecule `C=CC(=O)N1CCC(Nc2cc3c(Nc4ccc(Oc5ccnc(N6CC(S(C)(=O)=O)C6)c5)cc4F)ncnc3cc2OC)CC1` [Example 143, 1-(4-((4-((2-fluoro-4-((2-(3-(methylsulfonyl)azetidin-1-yl)pyridin-4-yl)oxy)phenyl)amino)-7-methoxyquinazolin-6-yl)amino)piperidin-1-yl)prop-2-en-1-one], the GI50 is at least 1000 nM in the assay on HCC827 cells; 300 to 600 nM in assay [1]; 300 to 600 nM in assay [2]; 300 to 600 nM in assay [3]; at least 1000 nM in the assay with A431 cells.

`C=CC(=O)N1CCC(Nc2cc3c(Nc4ccc(Oc5ccnc(N6CC(C(N)=O)C6)c5)cc4F)ncnc3cc2OC)CC1` [Example 144, 1-(4-(4-((6-((1-acryloylpiperidin-4-yl)amino)-7-methoxyquinazolin-4-yl)amino)-3-fluorophenoxy)pyridin-2-yl)azetidine-3-carboxamide]: the GI50 in the assay with HCC827 cells was at least 1000 nM; in assay [1], 600 to 1000 nM; in assay [2], 600 to 1000 nM; in assay [3], at least 1000 nM; in the assay on A431 cells it was at least 1000 nM.

For `C=CC(=O)N1CCC(Nc2cc3c(Nc4ccc(Oc5ccnc(N6CC(NC(C)=O)C6)c5)cc4F)ncnc3cc2OC)CC1` [Example 145, N-(1-(4-(4-((6-((1-acryloylpiperidin-4-yl)amino)-7-methoxyquinazolin-4-yl)amino)-3-fluorophenoxy)pyridin-2-yl)azetidin-3-yl)acetamide], the GI50 (with HCC827 cells; in assay [1]; in assay [2]; in assay [3]; in the assay with A431 cells) was at least 1000 nM throughout.

For the molecule `C=CC(=O)N1CCC(Nc2cc3c(Nc4ccc(Oc5ccnc(N6CC(C(C)(C)O)C6)c5)cc4F)ncnc3cc2OC)CC1` [Example 146, 1-(4-((4-((2-fluoro-4-((2-(3-(2-hydroxypropan-2-yl)azetidin-1-yl)pyridin-4-yl)oxy)phenyl)amino)-7-methoxyquinazolin-6-yl)amino)piperidin-1-yl)prop-2-en-1-one], the 50% growth inhibitory concentration (GI50) is 600 to 1000 nM in the assay with HCC827 cells; 60 to 100 nM in assay [1]; 60 to 100 nM in assay [2]; 100 to 300 nM in assay [3]; at least 1000 nM in the assay on A431 cells.

For `C=CC(=O)N1CCC(Nc2cc3c(Nc4ccc(Oc5ccnc(N6CC(N(C)C)C6)c5)cc4F)ncnc3cc2OC)CC1` [Example 147, 1-(4-((4-((4-((2-(3-(dimethylamino)azetidin-1-yl)pyridin-4-yl)oxy)-2-fluorophenyl)amino)-7-methoxyquinazolin-6-yl)amino)piperidin-1-yl)prop-2-en-1-one], the concentration for 50% growth inhibition (GI50) was 100 to 300 nM in the assay with HCC827 cells; 60 to 100 nM in assay [1]; 60 to 100 nM in assay [2]; 60 to 100 nM in assay [3]; at least 1000 nM in the assay with A431 cells.

`C=CC(=O)N1CCC(Nc2cc3c(Nc4ccc(Oc5ccnc(N6CC(OC(C)C)C6)c5)cc4F)ncnc3cc2OC)CC1` [Example 148, 1-(4-((4-((2-fluoro-4-((2-(3-isopropoxyazetidin-1-yl)pyridin-4-yl)oxy)phenyl)amino)-7-methoxyquinazolin-6-yl)amino)piperidin-1-yl)prop-2-en-1-one]: the GI50 fell in the range of 100 to 300 nM in the assay on HCC827 cells; 30 to 60 nM in assay [1]; 30 to 60 nM in assay [2]; 30 to 60 nM in assay [3]; 300 to 600 nM in the assay with A431 cells.

With `C=CC(=O)N1CCC(Nc2cc3c(Nc4ccc(Oc5ccnc(N6CCC(C)(O)C6)c5)cc4F)ncnc3cc2OC)CC1` (centres unmarked) [Example 149, 1-(4-((4-((2-fluoro-4-((2-(3-hydroxy-3-methylpyrrolidin-1-yl)pyridin-4-yl)oxy)phenyl)amino)-7-methoxyquinazolin-6-yl)amino)piperidin-1-yl)prop-2-en-1-one], the concentration for 50% growth inhibition (GI50) was in the range of 100 to 300 nM in the assay with HCC827 cells; 30 to 60 nM in assay [1]; 30 to 60 nM in assay [2]; 60 to 100 nM in assay [3]; 100 to 300 nM in the assay on A431 cells.

Take `C=CC(=O)N1CCC(Oc2cc3c(Nc4ccc(Oc5ccnc(N6C[C@@H](C)O[C@@H](C)C6)c5)cc4F)ncnc3cc2OC)CC1` [Example 152, 1-(4-((4-((4-((2-((2R,6S)-2,6-dimethylmorpholino)pyridin-4-yl)oxy)-2-fluorophenyl)amino)-7-methoxyquinazolin-6-yl)oxy)piperidin-1-yl)prop-2-en-1-one]: the GI50 was 600 to 1000 nM in the assay on HCC827 cells; 60 to 100 nM in assay [1]; under 30 nM in assay [2]; 60 to 100 nM in assay [3]; at least 1000 nM in the assay on A431 cells.

Take `C=CC(=O)N1CCC(Nc2cc3c(Nc4ccc(Oc5ccnc(N6CCC(C)(C)C6)c5)cc4F)ncnc3cc2OC)CC1` [Example 153, 1-(4-((4-((4-((2-(3,3-dimethylpyrrolidin-1-yl)pyridin-4-yl)oxy)-2-fluorophenyl)amino)-7-methoxyquinazolin-6-yl)amino)piperidin-1-yl)prop-2-en-1-one]: the GI50 with HCC827 cells was under 30 nM; in assay [1], under 30 nM; in assay [2], under 30 nM; in assay [3] it was 30 to 60 nM; with A431 cells, 300 to 600 nM.

With `C=CC(=O)N1CCC(Nc2cc3c(Nc4ccc(Oc5ccnc(N6C[C@@H](C)N[C@@H](C)C6)c5)cc4F)ncnc3cc2OC)CC1` [Example 154, 1-(4-((4-((4-((2-((3R,5S)-3,5-dimethylpiperazin-1-yl)pyridin-4-yl)oxy)-2-fluorophenyl)amino)-7-methoxyquinazolin-6-yl)amino)piperidin-1-yl)prop-2-en-1-one], the GI50 in the assay with HCC827 cells is at least 1000 nM; in assay [1], 300 to 600 nM; in assay [2] it was 100 to 300 nM; in assay [3] it was 300 to 600 nM; with A431 cells, at least 1000 nM.

For the molecule `C=CC(=O)N1CCC(Nc2cc3c(Nc4ccc(Oc5ccnc(N6CCC(CO)(CO)C6)c5)cc4F)ncnc3cc2OC)CC1` [Example 155, 1-(4-((4-((4-((2-(3,3-bis(hydroxymethyl)pyrrolidin-1-yl)pyridin-4-yl)oxy)-2-fluorophenyl)amino)-7-methoxyquinazolin-6-yl)amino)piperidin-1-yl)prop-2-en-1-one], the GI50 in the assay on HCC827 cells is at least 1000 nM; in assay [1] it was 100 to 300 nM; in assay [2] it was 100 to 300 nM; in assay [3], 100 to 300 nM; in the assay with A431 cells it was at least 1000 nM.

Consider `C=CC(=O)N1CCC(Oc2cc3c(Nc4ccc(Oc5ccnc(N6C[C@@H](C)N(C)[C@@H](C)C6)c5)cc4F)ncnc3cc2OC)CC1` [Example 156, 1-(4-((4-((2-fluoro-4-((2-((3R,5S)-3,4,5-trimethylpiperazin-1-yl)pyridin-4-yl)oxy)phenyl)amino)-7-methoxyquinazolin-6-yl)oxy)piperidin-1-yl)prop-2-en-1-one], for which the GI50 is at least 1000 nM with HCC827 cells; 100 to 300 nM in assay [1]; 100 to 300 nM in assay [2]; 100 to 300 nM in assay [3]; at least 1000 nM in the assay on A431 cells.

`C=CC(=O)N1CCC(Oc2cc3c(Nc4ccc(Oc5ccnc(N6CCN(C(C)C)CC6)c5)cc4F)ncnc3cc2OC)CC1` [Example 157, 1-(4-((4-((2-fluoro-4-((2-(4-isopropylpiperazin-1-yl)pyridin-4-yl)oxy)phenyl)amino)-7-methoxyquinazolin-6-yl)oxy)piperidin-1-yl)prop-2-en-1-one]: the 50% growth inhibitory concentration (GI50) (in the assay on HCC827 cells; in assay [1]; in assay [2]; in assay [3]; in the assay on A431 cells) was at least 1000 nM each time.

For `C=CC(=O)N1CCC(Nc2cc3c(Nc4ccc(Oc5ccnc(N6C[C@H](C)C[C@H](C)C6)c5)cc4F)ncnc3cc2OC)CC1` [Example 158, 1-(4-((4-((4-((2-((3S,5R)-3,5-dimethylpiperidin-1-yl)pyridin-4-yl)oxy)-2-fluorophenyl)amino)-7-methoxyquinazolin-6-yl)amino)piperidin-1-yl)prop-2-en-1-one], the GI50 is 600 to 1000 nM with HCC827 cells; 60 to 100 nM in assay [1]; 100 to 300 nM in assay [2]; 300 to 600 nM in assay [3]; at least 1000 nM in the assay on A431 cells.

`C=CC(=O)N1CCC(Nc2cc3c(Nc4ccc(Oc5ccnc(N6CCC(OC)C(C)(C)C6)c5)cc4F)ncnc3cc2OC)CC1` (centres unmarked) [Example 159, 1-(4-((4-((2-fluoro-4-((2-(4-methoxy-3,3-dimethylpiperidin-1-yl)pyridin-4-yl)oxy)phenyl)amino)-7-methoxyquinazolin-6-yl)amino)piperidin-1-yl)prop-2-en-1-one]: the GI50 fell in the range of 100 to 300 nM with HCC827 cells; 30 to 60 nM in assay [1]; 30 to 60 nM in assay [2]; 60 to 100 nM in assay [3]; 300 to 600 nM with A431 cells.

In the case of `C=CC(=O)N1CCC(Nc2cc3c(Nc4ccc(Oc5ccnc(N6CC7C(C6)C7(F)F)c5)cc4F)ncnc3cc2OC)CC1` (centres unmarked) [Example 160, 1-(4-((4-((4-((2-(6,6-difluoro-3-azabicyclo[3.1.0]hexan-3-yl)pyridin-4-yl)oxy)-2-fluorophenyl)amino)-7-methoxyquinazolin-6-yl)amino)piperidin-1-yl)prop-2-en-1-one], the 50% growth inhibitory concentration (GI50) with HCC827 cells was 30 to 60 nM; in assay [1], under 30 nM; in assay [2], under 30 nM; in assay [3], under 30 nM; in the assay on A431 cells, 60 to 100 nM.
